Test results as given in patent US20030091975A1, “Multiple determinants for metabolic phenotypes” (priority 2001, published 2003).
Where two headings read alike, the source gives them in different places. Marks after values point to notes of the source that are not given here.

Key:
1,7-DMX-Ab = experiment: Competitive antigen ELISA, antibody specificity of 1,7-DMX-Ab; format: binding, rabbit; settings: ideal antibody specificity result hypothesized; 0 = no inhibition or no higher than 40% at 5×10^−3 M
Protocol: (§1) BSA, antibodies, Tween™ 20 and horse radish peroxidase are added to buffers and water just prior to use. Urine samples are usually collected four hours after drinking a cup of coffee (instant or brewed with approximately 100 mg of caffeine per cup) and stored at −20° C. as 1-mL aliquots in 1.5-mL microtubes. For the ELISA, the urine samples are diluted with isotonic sodium phosphate buffer, pH 7.5 (310 mosM) to give concentrations of caffeine, 1.7-DMX and 1,7-DMU no higher than 3×10^−6 M in the microtiter plate wells. Wells of the ELISA plate are washed with a Nunc-Immuno wash 12 washer. Sixteen milliliters of a solution of 6.6 μg ml^−1 of isolated IgG antibodies is prepared in a 100 mM sodium carbonate buffer, pH 9.6, and 150 μL of this solution is pipetted in each well of a microtiter plate using a eight channel pipet (Brinkmann Transferpette™-8 50-200 μL) and 200 μL Flex tips from Brinkmann). After coating the wells with antibodies at 4° C. for 20 hours, the wells are washed 3 times with the isotonic sodium phosphate buffer containing 0.05% Tween™ 20 (IPBT) and properly drained by inverting the plate and absorbing the liquid on to a piece of paper towel. Thirty milliliters of a solution of a IPBT solution containing 1% BSA is prepared and 150 μL of this solution is pipetted in each well using a eight channel pipet (Brinkmann Transferpette ™-8 50-200 μL) and 200 μL yellow tips (Sarstedt yellow tips for P200 Gilson Pipetman). After 3 hours at room temperature, the wells are washed 3 times with IPBT solution and drained. Samples of 400 μL for determination of caffeine, 1,7-DMX and 1,7-DMU are prepared in 1.5-mL microtubes using Sarstedt yellow tips and a P200 Gilson Pipetman. Then, 200 μL of each sample are pipetted in duplicate in a Falcon 96-well microtest tissue culture plate according to the pattern shown in FIG. 22, using Sarstedt yellow tips and a P200 Gilson Pipetman. Using an eight channel pipet (Brinkmann Transferpette™-8 50-200 μL) and changing the tips of the eight channel pipet (200μL Flex tips from Brinkmann) at each row, 150 μL of samples are transferred in the corresponding wells of a 96-well ELISA microtiter plate coated with antibodies. After the addition of the samples, the microtiter plates are covered and left standing at room temperature for 2 h. While the plate is left standing the substrate buffer without the hydrogen peroxide and o-phenylenediamine hydrochloride is prepared (25 mM citric acid and 50 mM sodium phosphate dibasic buffer, pH 5.0). The microtiter plate is washed 3 times with the IPBT solution and 3 times with a 0.05% Tween™ 20 solution and drained. Then, 50 μL of hydrogen peroxide and 40 mg of o-phenylenediamine are added to the substrate buffer. One hundred fifty microliters (150 μL) of the substrate buffer solution is then added to each well using a eight channel pipet (Brinkmann Transferpette™-8 50-200 μL) and 200 μL Flex tips (Brinkmann). The microtiter plate is covered and shaken for 25-30 min at room temperature and the enzymatic reaction is stopped by adding 50 μL/well of a 2.5 N HCl solution using an eight channel pipet (Brinkmann Transferpette™-8 50-200 μL) and 200L Flex tips (Brinkmann).

Caffeine-Ab = experiment: Competitive antigen ELISA, antibody specificity of caffeine-Ab; format: binding, rabbit; settings: ideal antibody specificity result hypothesized; 0 = no inhibition or no higher than 40% at 5×10^−3 M
Protocol: as §1

1,7-DMU-Ab = experiment: Competitive antigen ELISA, antibody specificity of 1,7-DMU-Ab; format: binding, rabbit; settings: ideal antibody specificity result hypothesized; 0 = no inhibition or no higher than 40% at 5×10^−3 M
Protocol: as §1

1X-Ab = experiment: Competitive antigen ELISA, cross-reactivity of 1X-Ab; format: binding, rabbit; settings: 0 = absence of inhibition or inhibition no higher than 40% at the highest concentration tested (5×10^−3 M)
Protocol: (§2) Buffers and water without additives are filtered through millipore filters and kept for 1 week. BSA, antibodies, Tween™ 20 and horse radish peroxidase conjugates are added to these buffers and water just prior to use. Urine samples are usually collected 4 hours after drinking a cup of coffee (instant or brewed with approximately 100 mg of caffeine per cup) and stored at −80° C. The urine samples are diluted 10 times with sodium phosphate buffer (620 mosm, pH 7.50) and are subsequently diluted with water to give concentrations of AAMU and 1X no higher than 3×10^−6 M in the ELISA. All the pipettings are done with an eight-channel pipette, except those of the antibody and sample solutions. Starting with the last well, 100 μL of a carbonate buffer (100 mM, pH 9.6) containing 2.5 μg mL-1 antibodies are added to each well. After 90 min. at room temperature, the wells are washed three times with […] of TPB: isotonic sodium phosphate buffer (310 mosm, pH 7.50) containing 0.05% Tween™ 20.
(§3) After the initial wash, unoccupied sites are blocked by incubation for 90 min. at room temperature with 100 μL TBP containing 3% BSA. The wells are washed four times with 100 μL TPB. […] The microplate is gently shaken with an orbital shaker at room temperature for 3-4 hours. The wells are washed three times with 100 μL TPB containing 1% BSA and three times with water containing 0.05% Tween ™ 20. To the washed plate is added 150 μL of a substrate buffer composed of citric acid (25 mM) and sodium phosphate dibasic buffer (50 mM, pH 5.0) containing 0.06% hydrogen peroxide and 0.04% o-phenylenediamine hydrochloride.
(§4) Buffers and water without additives were filtered through millipore filters and kept for 1 week. BSA, antibodies, Tween ™ 20 and horse radish peroxidase conjugates were added to these buffers and water just prior to use. Urine samples were usually collected 4 hours after drinking a cup of coffee (instant or brewed with approximately 100 mg of caffeine per cup) and stored at 80° C. They were diluted 10 times with sodium phosphate buffer (620 mosm, pH 7.50) and were subsequently diluted with water to give concentrations of AAMU and 1X no higher than 3×10^−6 M in the ELISA. All the pipettings were done with an eight-channel pipette, except those of the antibody and sample solutions. Starting with the last well, 100 μL of a carbonate buffer (100 mM, pH 9.6) containing 2.5 μg mL^−1 antibodies was pipetted. After 90 min. at room temperature, the wells were washed three times with 100 μL of TPB: isotonic sodium phosphate buffer (310 mosm, pH 7.50) containing 0.05% Tween™ 20.
(§5) After the initial wash, unoccupied sites were blocked by incubation for 90 min. at room temperature with 100 μL TBP containing 3% BSA. The wells were washed four times with 100 μL TPB. […] The microplate was gently shaken with an orbital shaker at room temperature for 3-4 hours. The wells were washed three times with 100 μL with TPB containing 1% BSA and three times with water containing 0.05% Tween™ 20. To the washed plate was added 150 μL of a substrate buffer composed of citric acid (25 mM) and sodium phosphate dibasic buffer (50 mM, pH 5.0) containing 0.06% hydrogen peroxide and 0.04% o-phenylenediamine hydrochloride. After 20 min. at room temperature with shaking, the reaction was stopped with 50 μL of 2.5 N HCl.
(§6) The cross reactivities of AAMU-Ab and 1X-Ab were tested using a wide variety of caffeine metabolites and structural analogs (Table 5 below).

AAMU-Ab = experiment: Competitive antigen ELISA, cross-reactivity of AAMU-Ab; format: binding, rabbit; settings: 0 = absence of inhibition or inhibition no higher than 40% at the highest concentration tested (5×10^−3 M)
Protocol: as §2, §3, §4, §5, §6

[1] = cited from earlier work
[2] = cited from earlier work; remark: listed apart in the source
[3] = 2 mg/kg, cited from earlier work
μ-opiod receptor = μ-opiod receptor (Homo sapiens, UniProt P35372); settings: relative to morphine; cited from earlier work
Chain of μ-opiod receptor (P35372 whole entry): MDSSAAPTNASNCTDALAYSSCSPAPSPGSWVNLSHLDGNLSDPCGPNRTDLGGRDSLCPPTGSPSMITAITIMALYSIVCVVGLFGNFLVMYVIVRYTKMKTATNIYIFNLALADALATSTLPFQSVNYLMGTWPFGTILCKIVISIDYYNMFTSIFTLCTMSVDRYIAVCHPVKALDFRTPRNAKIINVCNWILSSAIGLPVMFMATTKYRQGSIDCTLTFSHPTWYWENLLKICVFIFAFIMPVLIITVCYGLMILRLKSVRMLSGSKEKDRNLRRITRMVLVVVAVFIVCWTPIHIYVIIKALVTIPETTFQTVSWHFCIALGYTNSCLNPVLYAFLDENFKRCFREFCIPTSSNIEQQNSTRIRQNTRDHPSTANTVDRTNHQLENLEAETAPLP

[4] = cited from earlier work; remark: listed apart in the source

Structure (SMILES)	% Cross-reaction 1,7-DMX-Ab (1,7-DMX-Ab) [%]	% Cross-reaction Caffeine-Ab (Caffeine-Ab) [%]	% Cross-reaction 1,7-DMU-Ab (1,7-DMU-Ab) [%]	% Cross-Reaction 1X-Ab (1X-Ab) [%]	% Cross-Reaction AAMU-Ab (AAMU-Ab)	further results
Cc1nc2[nH]c(=O)[nH]c(=O)c2[nH]1 [8-Methyl Xanthine]	0	0	0	0	0%	
CN(C)CCN1C(=O)c2cccc3cc(N)cc(c23)C1=O [Amonafide]						deaths ([1]; 300 mg/m^2, extremely fast acetylators): two women (both oriental) died from severe myelosuppression; response rate ([1]; individuals considered to be properly dosed): 30-50%; overall response rate ([1]; phase II trial, standard 300 mg/m^2 dose for all individuals): 18%
COc1ccc2c(c1)[C@]13CCCC[C@@H]1[C@H](C2)N(C)CC3 [Dextromethorphan]						mean performance +/−SE ([2]; extensive metabolizers (EMs)): 95+/−0.5%; mean performance +/−SE ([2]; poor metabolizers (PMs), p<0.05): 86+/−6%
Nc1nc2nc[nH]c2c(=O)[nH]1 [Guanine]	0	0	0	0	0%	
O=c1[nH]cnc2nc[nH]c12 [Hypoxanthine]	0	0	0	0	0%	
COc1cccc(C2(O)CCCCC2CN(C)C)c1 (stereo not shown) [Tramadol]						side effects vs placebo ([3]; extensive metabolizers): caused side effects significantly more frequently than placebo; analgesic effect ([3]; extensive vs poor metabolizers): better analgesic in extensive metabolizers as compared to poor metabolizers; affinity for the μ-opiod receptor, factor weaker than morphine (μ-opiod receptor): ~6000
O=c1cc[nH]c(=O)[nH]1 [Uracil]	0	0	0	0	0%	
O=c1[nH]c(=O)c2[nH]c(=O)[nH]c2[nH]1 [Uric acid]	0	0	0	0	0%	
O=c1[nH]c(=O)c2[nH]cnc2[nH]1 [Xanthine]	0	0	0	0	0^a %	
Nc1ccc(S(=O)(=O)c2ccc(N)cc2)cc1 [dapsone]						adverse reactions to dapsone ([4]; fast acetylators): 17%; adverse reactions to dapsone ([4]; slow acetylators): 46%
